The conditions of this data set: 298.15 K; 101.33 kPa; Crystal; mass and volume measurments.

Numbers after ± are expanded uncertainties.

Consider `Oc1cccnc1O` [2,3-dihydroxypyridine], for which the mass density (as a rule, mass per unit of volume) was 1130 ± 20 kg/m3.

The values above are taken from the NIST ThermoML archive (doi:10.1016/j.jct.2005.06.013).
